Numbering of substitutions follows the chain as printed. pIC50: −log10 of the molar value. Where two headings read alike, the source gives them in different places. Each block holds one compound with its values, some of them ahead of it.
How the values were obtained:
[1] = test system: F150A-WT linked Hv1 heterodimers; assay: Inside-out patch clamp, partial block of linked F150A-WT Hv1 heterodimers; assay type: cell-based, human; conditions: 2 µM 2GBI, +120 mV
human Hv1 channel [2] = target: T1, human Hv1 channel (Homo sapiens, UniProt Q96D96); assay: Inside-out patch clamp of proton currents, Xenopus oocytes expressing human Hv1; assay type: cell-based; conditions: for Inhibition of Hv1 proton current compared with 2GBI: 200 µM intracellular, inside-out patch, +120 mV
T1 sequence (Q96D96 1-273): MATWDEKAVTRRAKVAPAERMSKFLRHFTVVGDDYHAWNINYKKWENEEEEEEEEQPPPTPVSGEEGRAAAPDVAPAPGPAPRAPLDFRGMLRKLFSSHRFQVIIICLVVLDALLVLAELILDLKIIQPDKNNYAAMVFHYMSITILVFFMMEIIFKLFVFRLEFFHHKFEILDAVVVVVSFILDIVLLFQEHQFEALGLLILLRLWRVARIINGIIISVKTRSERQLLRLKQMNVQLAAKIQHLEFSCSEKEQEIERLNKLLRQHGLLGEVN

human Hv1 channel [3] = target: T1, human Hv1 channel; conditions: cited from earlier work; for Inhibition of Hv1 channel by intracellular quaternary ammonium ions: ref Musset et al., 2011, Ramsey et al., 2006
Hv1 F150A = target: T2, Hv1 F150A (Homo sapiens, UniProt Q96D96, F150A); assay: Inside-out patch clamp, inhibition of Hv1 F150A mutant; assay type: cell-based; conditions: 1 µM 2GBI, 500 µM guanidinium, 7.9 mM magnesium, intracellular
T2 sequence (Q96D96 1-273 F150A): T1 sequence (Q96D96 1-273) with F150A

SMILES: N=C(N)Nc1nc2ccccc2[nH]1 [Compound 7, 2-guanidinobenzimidazole]
Total inhibition of the initial current [1]: ~ 50% | Estimated fraction of wild type subunits blocked ([1]; estimated from dissociation constants of homodimers): ~6%

SMILES: CN(C)C(=N)N=C(N)N [Compound 8, metformin, reference compound]
Inhibition of Hv1 proton current compared with 2GBI (human Hv1 channel [2]): not as effective as 2GBI

SMILES: C[N+](C)(C)C [TMA^+]
Inhibition of Hv1 channel by intracellular quaternary ammonium ions (human Hv1 channel [3]): do not inhibit

SMILES: [Mg+2] [magnesium, reference compound]
pIC50 (human Hv1 channel [2]; wild type Hv1, GBOZ curve extrapolated above solubility limit): ~2.05 | Difference in binding affinity between F150A and wild type channels (Hv1 F150A): no difference

SMILES: N=C(N)N [Compound 1, Guanidine]
Concentration range effective at inhibiting proton currents (human Hv1 channel [2]): millimolar concentration range | Difference in binding affinity between F150A and wild type channels (Hv1 F150A): much smaller difference | Inhibition of Hv1 and effect on activation curve (human Hv1 channel [3]; ref Tombola et al., 2008): inhibit Hv1 without shifting the channel’s activation curve

SMILES: CC[N+](CC)(CC)CC [TEA^+, tetraethylammonium]
Inhibition of Hv1 channel by intracellular quaternary ammonium ions (human Hv1 channel [3]): do not inhibit

The next lines start with the values.

Inhibition of Hv1 proton current compared with 2GBI (human Hv1 channel [2]): not as effective as 2GBI
SMILES: Cc1nc(NC(=N)N)nc2ccccc12 [Compound 9, 2-guanidino-4-methylquinazoline]

Inhibition of Hv1 proton current compared with 2GBI (human Hv1 channel [2]): almost as effectively as 2GBI
SMILES: N=C(N)Nc1nc2ccccc2s1 [Compound 12, 1-(1,3-benzothiazol-2-yl)guanidine]

Inhibition of Hv1 proton current compared with 2GBI (human Hv1 channel [2]): not as effective as 2GBI
SMILES: CC(=O)N(C(=N)NC(=N)N)c1ccccc1 [Compound 10, N-(guanidino-imino-methyl)-N-phenylacetamide]

pIC50 (human Hv1 channel [2]): ~2.05
SMILES: N=C(N)Nc1nc2ccccc2o1 [Compound 11, 1-(1,3-benzoxazol-2-yl)guanidine]

Reference: publication PMC3559007 (Neuron, 2013)
